Source: patent US20140148482A1, “METHOD FOR SCREENING ANTI-CANCER DRUGS AND METHOD OF CANCER TREATMENT” (National Taiwan University, priority 2012, published 2014)
Where two headings read alike, the source gives them in different places.

Legend:
[1] = tested on: GADD45β mRNA in Huh-7 cells; test: GADD45β mRNA induction in Huh-7 cells, quantitative RT-PCR; type: cell-based, human; conditions: 24 hours; for GADD45β relative gene expression, Mean: Huh-7 cells, 10 μM, reference control group = 100%; for GADD45β mRNA expression induction: Huh-7, 10 uM, FIG. 4B
Description: (§1) Huh-7 cells, were added with 10 μM of the candidate compound and co-cultured under the same conditions for 24 hours. Sorafenib (10 μM) is used as a positive control group, and Huh-7 cells without compound treatment is used as the reference control group. mRNA levels were assessed through quantitative RT-PCR.
(§2) RNA was extracted using a Trizol reagent (Invitrogen, San Diego, Calif.). cDNAs were synthesized from total RNA (1 μg) using a High Capacity cDNA Archive kit (Applied Biosystems, Foster City, Calif.) and quantified using the TaqMan-Universal or SYBR Green PCR Master Mix (Applied Biosystems, Foster City, Calif.) on an ABI PRISM 7900 Sequence Detection System (Applied Biosystems, Foster City, Calif.). The primers for the GADD45β, GADD45γ and c-jun genes were purchased from Applied Biosystems (ABI TaqMan assay ID: Hs00169587_ml, Hs00198672_ml and Hs00277190_s1). Primers for the hypoxanthine phosphoribosyltransferase (HPRT; sense 5′-[…]-3′ and antisense 5′-[…]-3′) gene were used as endogenous controls. Conditions for PCR were as follows: 50° C. for 2 minutes, 95° C. for 10 minutes, and then 40 cycles of 95° C. for 15 seconds (denaturation) and 60° C. for 1 minute (annealing/extension). The relative mRNA amount of the target/control genes was calculated using the ΔCt (threshold cycle) method: relative expression=2−ΔCt, where ΔCt=Ct (target gene)−Ct (control gene). The gene expression of the reference control group is as 100%.
The effects of GADD45β mRNA induction by different concentrations of the candidate compounds were tested.

[2] = tested on: c-jun mRNA in Huh-7 cells; test: c-jun mRNA induction in Huh-7 cells, quantitative RT-PCR; type: cell-based, human; conditions: 10 μM, 24 hours, reference control group = 100%
Description: as §1, §2

[3] = tested on: GADD45γ mRNA in Huh-7 cells; test: GADD45γ mRNA induction in Huh-7 cells, quantitative RT-PCR; type: cell-based, human; conditions: for screening criterion: increased expression of GADD45 family: 300% or above of GADD45γ expression, 800% or above of GADD45β expression, or both, Table 1; for GADD45γ relative gene expression, Mean: Huh-7 cells, 10 μM, 24 hours, reference control group = 100%
Description: as §1, §2
(§3) SC-20 was then tested for GADD45β, GADD45γ and c-Jun mRNA in sorafenib-sensitive (Huh-7) and sorafenib-resistant (Huh-7R) cell lines. The cell culture and the steps of SC-20 treatment were as described above. The concentration of SC-20 and was 10 μm. Said mRNA was measured via qRT-PCR.
as §2, with “Hs00277190_sl).” for “Hs00277190_s1).”, “gene).” for “gene). The gene expression of the reference control group is as 100%.”

[4] = tested on: HCC cells (Huh-7, Hep3B, Huh-7R); test: MTT cell viability of HCC cells (FIG. 2A); type: cell-based, human; conditions: 72 hours, especially in sorafenib-resistant cell lines (Hep3B and Huh-7R)
Description: (§7) Cell viability was assessed using an MTT (3-(4,5-dimethylthiazol-2-yl)-2,5-diphenyltetrazolium bromide) assay
(§8) The HCC cell line, Hep3B, was obtained from the American Type Culture Collection (ATCC), and the Huh-7 cell line was from the Health Science Research Resources Bank. Cells were cultured in DMEM, containing 10% fetal bovine serum, penicillin (100 units/mL), streptomycin (100 μg/mL), L-glutamine (2 mmol/L), and sodium pyruvate (1 mmol/L) at 37° C. in a humidified incubator containing 5% CO2. A sorafenib-resistant cell line, Huh-7R, was generated through continuous treatment of Huh-7 cells with sorafenib up to 10 μmol/L.Human umbilical vein endothelial cells (HUVEC) were procured from ScienCell Research Laboratories, CA. HUVECs were maintained in endothelial cell culture medium (ScienCell) to selectively promote growth at 37° C. in a 5% CO2 incubator.
(§9) Then the cells were collected and measured via an MTT assay.

[5] = tested on: Huh-7 cells; test: MTT cell viability, Huh-7; type: cell-based, human; conditions: sorafenib-sensitive Huh-7, 72 hours, FIG. 5A
Description: as §7
The HCC cell line, Hep3B, was obtained from the American Type Culture Collection (ATCC), and the Huh-7 cell line was from the Health Science Research Resources Bank. Cells were cultured in DMEM, containing 10% fetal bovine serum, penicillin (100 units/mL), streptomycin (100 μg/mL), L-glutamine (2 mmol/L), and sodium pyruvate (1 mmol/L) at 37° C. in a humidified incubator containing 5% CO2.
Huh-7 and Hep3B cells were treated with sorafenib, SC-3 or SC-20 for 72 hours, and the cell viability was assessed using an MTT assay.

[6] = tested on: HUVEC (human umbilical venous endothelial cells); test: MTT cell viability, HUVEC; type: cell-based; conditions: 72 hours, especially in 5 uM treatments, FIG. 2B
Description: as §7, §8, §9

[7] = tested on: GADD45γ mRNA in Huh-7R cells; test: GADD45γ mRNA induction in sorafenib-resistant Huh-7R cells, qRT-PCR; type: cell-based, human; conditions: 10 μm, cut-off more than 300%, FIG. 3B
Description: as §3
as §2, with “Hs00277190_sl).” for “Hs00277190_s1).”, “gene).” for “gene). The gene expression of the reference control group is as 100%.”

[8] = tested on: p-ERK in Huh-7 cells; test: phospho-ERK protein level by Western blotting, Huh-7; type: cell-based, human; conditions: Huh-7, 24 hours, FIG. 4A
Description: (§4) Total-ERK, and phospho-ERK protein levels in HCC cells after sorafenib, SC-3 or SC-20 treatment at 24 hours. Whole-cell lysates after drug treatment were examined using Western blotting. Whole cell lysates of HCC cells after drug treatment were prepared and quantified as previously described (Ou D L et al. Cancer Res. 2010; 70:9309-18). SDS-PAGE and Western blot analysis were performed to measure protein expression. Signals were visualized using a UVP Imaging System (UVP, Upland, Calif.), or with X-ray film.

[9] = tested on: p-ERK in Hep3B cells; test: phospho-ERK protein level by Western blotting, Hep3B; type: cell-based, human; conditions: 24 hours, FIG. 4A
Description: as §4

[10] = tested on: Huh-7 cells; test: Apoptosis induction (Sub-G1) by flow cytometry; type: cell-based, human; conditions: Huh-7, FIGS. 5B and 5C
[11] = tested on: Huh-7 xenograft; test: Subcutaneous xenograft model of HCC, Huh-7; type: in vivo, mice; conditions: SC-20 20 mg/kg/d vs sorafenib 50 mg/kg/d
Description: (§5) The protocol for the in vivo studies was approved by the Institutional Animal Care and Use Committee of College of Medicine, National Taiwan University. All the animal studies were performed according to the criteria outlined in the Guide for the Care and Use of Laboratory Animals prepared by National Academy of Sciences and published by NIH. Male BALB/c athymic (nu+/nu+) mice were inoculated subcutaneously with Huh-7 cells or Huh-7R cells (˜1×10^6). When the tumor volume reached ˜100 mm3 [volume (mm3)=(width)2×length×0.5], the mice were randomized into six treatment groups (n≧6 in each group): (a) vehicle control, (b) SC-20: 5 mg/kg/d, (c) SC-20: 10 mg/kg/d, (d) SC-20: 20 mg/kg/d, (e) SC-20: 50 mg/kg/d and (f) sorafenib: 50 mg/kg/d. Drug treatment was given daily via gavage. Tumor volume and body weight were recorded every 7 days. Tumor images from mice are from sacrifices at 25 days of treatment.
(§6) An additional mice were used to establish xenografts to observe survival time. For these experiments, mice with subcutaneously tumors (100 mm^3) were treated as described above. Survival was monitored until the experiments were terminated due to heavy tumor burden over 2000 mm^3 (FIG. 6C). Tx start, treatment start time; Tx stop, treatment stop time.

[12] = tested on: Huh-7R xenograft; test: Subcutaneous xenograft model of HCC, Huh-7R; type: in vivo, mice; conditions: SC-20 20 mg/kg/d vs sorafenib 50 mg/kg/d
Description: as §5, §6

[13] = tested on: BNL-MEA allograft; test: Orthotopic allograft model of HCC, BNL-MEA; type: in vivo, mice
Description: The protocol for the in vivo studies was approved by the Institutional Animal Care and Use Committee of College of Medicine, National Taiwan University. All the animal studies were performed according to the criteria outlined in the Guide for the Care and Use of Laboratory Animals prepared by National Academy of Sciences and published by NIH. BALB/c mice were anaesthetized with isoflurane, and a small transverse incision was made in the left abdomen. BNL-MEA cells (˜1.5×10^5) suspended in 20 μl PBS were slowly injected with a 30-gauge needle into the left liver lobe, which was exposed through the incision. After injection, the incision was closed by suture with absorbable material. Five days after the surgery, the mice were randomized to three treatment groups (n≧4 in each group): (a) vehicle control, (b) SC-20 20 mg/kg/d and (c) sorafenib 10 mg/kg/d. Drug treatment was given daily via gavage. Mice sacrificed after twenty-five treatments were used as end-points of the therapeutic effect. In FIG. 7C, the arrows indicated the tumors.

[14] = tested on: Hep3B cells; test: MTT cell viability, Hep3B; conditions: for cell viability of Hep3B (percentage of surviving cells): 72 hours of drug treatment, FIG. 2A
Description: as §7
(§10) Cells were cultured in DMEM, containing 10% fetal bovine serum, penicillin (100 units/mL), streptomycin (100 μg/mL), L-glutamine (2 mmol/L), and sodium pyruvate (1 mmol/L) at 37° C. in a humidified incubator containing 5% CO2.
as §9

[15] = tested on: Hep3B cells; conditions: human, 72 h
Description: as §7, §10, §9

SMILES	GADD45β relative gene expression, Mean [1] [%]	c-Jun relative gene expression, Mean [2] [%]	screening criterion: increased expression of GADD45 family [3]	GADD45γ relative gene expression, Mean [3] [%]	GADD45β mRNA expression induction [1]	growth inhibition of HCC cells compared with sorafenib [4]	cell viability of Hep3B (percentage of surviving cells) [14] [%]	also measured
N#Cc1ccc(Oc2ccc(NC(=O)Nc3ccc(Cl)c(C(F)(F)F)c3)cc2)cc1 [SC-1]	1156.44	343.08	satisfied the increased expression of GADD45 family	402.46				
Cc1cc(Oc2ccnc3c([N+](=O)[O-])cccc23)ccc1NC(=O)c1cc(C(F)(F)F)cc(C(F)(F)F)c1 [SC-20]	1674.94	515.47	satisfied the increased expression of GADD45 family	364.16	significantly induced	even more potent than sorafenib	36.78	GADD45γ mRNA induction ([3]; sorafenib-sensitive Huh-7, 10 μm, cut-off more than 300%, FIG. 3A): can be induced; cell growth inhibition compared with sorafenib [5]: more potency than sorafenib; growth inhibition of HUVECs compared with sorafenib [6]: even more potent than sorafenib; GADD45γ mRNA induction [7]: can be induced; reduction of p-ERK [8]: incapable of reducing p-ERK; reduction of p-ERK [9]: incapable of reducing p-ERK; apoptosis induction (Sub-G1) compared with sorafenib [10]: more potency than sorafenib in inducing apoptosis; mice survival time ([11]; FIG. 6C): significantly prolong mice survival times more than highly dose of sorafenib; tumor growth inhibition ([11]; daily gavage, FIG. 6A): significantly inhibited tumor growth more than highly dose of sorafenib; mice survival time ([12]; FIG. 6C): significantly prolong mice survival times more than highly dose of sorafenib; tumor growth inhibition ([12]; daily gavage, FIG. 6B): significantly inhibited tumor growth more than highly dose of sorafenib; tumor growth in terms of tumor volume and weight ([13]; BNL-MEA allograft, SC-20 20 mg/kg/d, daily gavage, twenty-five treatments, FIGS. 7A and 7B): significantly inhibited tumor growth; tumor growth inhibition compared with sorafenib ([13]; orthotopic model, SC-20 20 mg/kg/d vs sorafenib 10 mg/kg/d, FIG. 7C): inhibited tumor growth significantly more than sorafenib; cell growth inhibition compared with sorafenib ([14]; sorafenib-resistant Hep3B, 72 hours, FIG. 5A): more potency than sorafenib
Cc1cc(Oc2ccnc3c(N)cccc23)ccc1NC(=O)c1cc(C(F)(F)F)cc(C(F)(F)F)c1 [SC-21]	94.65	77.51		96.65				
CC(=O)Nc1cccc2c(Oc3ccc(NC(=O)c4cc(C(F)(F)F)cc(C(F)(F)F)c4)c(C)c3)ccnc12 [SC-22]	340.21	183.54		229.94				
N#Cc1ccc(Oc2ccc3cccc(NC(=O)Nc4ccc(Cl)c(C(F)(F)F)c4)c3c2)cc1 [SC-72]	1951.02	552.00	satisfied the increased expression of GADD45 family	1522.00		even more potent than sorafenib		cell viability of Hep3B (percentage of surviving cells) [15]: 15.65%
CNC(=O)c1cc(Oc2ccc(NC(=O)Nc3ccc(Cl)c(C(F)(F)F)c3)cc2)ccn1 [sorafenib, Sorafenib, reference compound]	2226.40	447.28		1377.54	significantly induced		68.57	
